Counter-ions that a name gives are not always drawn.

T1 sequence (P13945 whole entry): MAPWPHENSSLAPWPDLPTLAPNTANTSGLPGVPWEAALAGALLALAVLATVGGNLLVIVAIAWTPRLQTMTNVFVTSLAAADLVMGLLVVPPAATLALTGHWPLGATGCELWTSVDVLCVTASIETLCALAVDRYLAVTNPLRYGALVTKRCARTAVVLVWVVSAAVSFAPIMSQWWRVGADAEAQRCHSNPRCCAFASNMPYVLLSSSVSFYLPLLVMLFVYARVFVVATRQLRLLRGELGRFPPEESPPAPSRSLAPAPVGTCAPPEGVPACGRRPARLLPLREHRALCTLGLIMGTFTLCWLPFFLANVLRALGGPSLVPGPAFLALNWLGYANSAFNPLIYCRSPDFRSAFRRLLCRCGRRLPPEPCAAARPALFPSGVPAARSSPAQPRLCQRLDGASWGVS

One assay concerns the target T1, human β3 adrenergic receptor (Homo sapiens, UniProt P13945).
T1 construct: stably transfected with the cloned β-adrenergic receptor (β1, β2 or β3); expressed in transfected cells; host or cells: Chinese hamster ovary (CHO) cells, stably transfected
As to the kind of experiment: Functional assay: cAMP production (LANCE TR-FRET) in CHO cells stably transfected with cloned β3 adrenergic receptor. Type of assay: cell-based. Conditions: Table 2; cAMP production, CHO cells expressing human β3 AR; read-out: Human β3 functional. How it is done:
Functional Assay: cAMP production in response to ligand is measured according to Barton, et al. (1991, Agonist-induced desensitization of D2 dopamine receptors in human Y-79 retinoblastoma cells. Mol. Pharmacal. v3229:650-658) modified as follows, cAMP production is measured using a homogenous time-resolved fluorescence resonance energy transfer immunoassay (LANCE™, Perkin Elmer) according to the manufacture's instructions. Chinese hamster ovary (CHO) cells, stably transfected with the cloned β-adrenergic receptor (β1, β2 or β3) are harvested after 3 days of subculturing. Harvesting of cells is done with Enzyme-free Dissociation Media (Specialty Media). Cells are then counted and resuspended in assay buffer (Hank's Balanced salt solution supplemented with 5 mM HEPES, […]) containing a phosphodiesterase inhibitor (IBMX, 0.6 mM). The reaction is initiated by mixing 6,000 cells in 6 μL with 6 μL Alexa Fluor labeled cAMP antibody (LANCE™ kit) which is then added to an assay well containing 12 μL of compound (diluted in assay buffer to 2× final concentration). The reaction proceeds for 30 min at room temperature and is terminated by the addition of 24 ul detection buffer (LANCE™ kit). The assay plate is then incubated for 1 h at room temperature and time-resolved fluorescence measured on a Perkin Elmer Envision reader or equivalent. The unknown cAMP level is determined by comparing fluorescence levels to a cAMP standard curve.
The non-selective, full agonist β-adrenergic ligand isoproterenol is used at all three receptors to determine maximal stimulation. The human β3 adrenergic receptor (AR) selective ligand (S)-N-[4-[2-[[2-hydroxy-3-(4-hydroxyphenoxy)propyl]amino]ethyl]-phenyl]-4-iodobenzenesulfonamide is used as a control in all assays. Isoproterenol is titrated at a final concentration in the assay of 10^-10 M to 10-5 and the selective ligand (S)-N-[4-[2-[[2-hydroxy-3-(4-hydroxyphenoxy)propyl]amino]ethyl]phenyl]-4-iodobenzenesulfonamide is titrated at the β3 receptor at concentration of 10^-10 M to 10^-5 M. Unknown ligands are titrated at all 3 β-adrenergic receptor subtypes at a final concentration in the assay of 10^-10 M to 10^-5 M to determine the EC50. The EC50 is defined as the concentration of compound that gives 50% activation of its own maximum. Data are analyzed using Microsoft Excel and Graphpad Prism or an internally developed data analysis software package.
Background: Changes in cAMP serve as a functional read-out for many G protein-coupled receptors.
`NC(=O)c1cnn(CC(=O)Nc2ccc(CC3CC[C@H]([C@H](O)c4cccnc4)N3)cc2)c1` (stereo partly drawn) [Example 90]: the EC50 fell in the range of 11 to 100 nM.

Turning to `Cc1nn(C)c(O)c1CC(=O)Nc1ccc(CC2CC[C@H]([C@H](O)c3cccnc3)N2)cc1` (stereo partly drawn) [Example 88], the EC50 lay in the range of 101 to 1000 nM.

`CC1=NN(CC(=O)Nc2ccc(CC3CC[C@H]([C@H](O)c4cccnc4)N3)cc2)C(=O)C1C` (stereo partly drawn) [Example 69]: the EC50 was in the range of 11 to 100 nM.

Turning to `O=C(Cn1c(-c2ccccc2)nc2ccccc21)Nc1ccc(CC2CC[C@H]([C@H](O)c3cccnc3)N2)cc1` (stereo partly drawn) [Example 18], the EC50 is 11 to 100 nM.

Turning to `COC(=O)CCC(=O)Nc1ccc(CC2CC[C@H]([C@H](O)c3cccnc3)N2)cc1` (stereo partly drawn) [Example 83], the EC50 lay within 101 to 1000 nM.

As for `O=C(CN1C(=O)CCC1=O)Nc1ccc(CC2CC[C@H]([C@H](O)c3cccnc3)N2)cc1` (stereo partly drawn) [Example 43], the EC50 is 11 to 100 nM.

On to `NC(=O)c1nn(CC(=O)Nc2ccc(CC3CC[C@H]([C@H](O)c4cccnc4)N3)cc2)c(=O)c2ccccc12` (stereo partly drawn) [Example 56], for which the EC50 was in the range of 1 to 10 nM.

As to `O=C(O)CCC(=O)Nc1ccc(CC2CC[C@H]([C@H](O)c3cccnc3)N2)cc1` (stereo partly drawn) [Example 84], the EC50 lay in the range of 101 to 1000 nM.

On to `COc1ncncc1CC(=O)Nc1ccc(CC2CC[C@H]([C@H](O)c3cccnc3)N2)cc1` (stereo partly drawn) [Example 48], for which the EC50 is 11 to 100 nM.

For the compound `O=C(Cc1n[nH]c(-c2ccccc2)n1)Nc1ccc(CC2CC[C@H]([C@H](O)c3cccnc3)N2)cc1` (stereo partly drawn) [Example 4], the EC50 is 1 to 10 nM.

Take `O=C(Cn1ccc(=O)[nH]c1=O)Nc1ccc(CC2CC[C@H]([C@H](O)c3cccnc3)N2)cc1` (stereo partly drawn) [Example 61]: the EC50 was 1 to 10 nM.

Take `O=C(Nc1ccc(CC2CC[C@H]([C@H](O)c3cccnc3)N2)cc1)c1ccccc1-n1nccn1` (stereo partly drawn) [Example 35]: the EC50 was in the range of 11 to 100 nM.

As for `O=C(Cc1c(-c2ccccc2)[nH]c2ccccc12)Nc1ccc(CC2CC[C@H]([C@H](O)c3cccnc3)N2)cc1` (stereo partly drawn) [Example 16], the EC50 was 11 to 100 nM.

Take `O=C(Nc1ccc(CC2CC[C@H]([C@H](O)c3cccnc3)N2)cc1)c1ccccc1CCc1ccccc1` (stereo partly drawn) [Example 32]: the EC50 lay in the range of 11 to 100 nM.

As for `CN1CCCN(CC(=O)Nc2ccc(CC3CC[C@H]([C@H](O)c4cccnc4)N3)cc2)C1=O` (stereo partly drawn) [Example 87], the EC50 lay in the range of 101 to 1000 nM.

The same assay, now with this note: Table 3; cAMP production, CHO cells expressing human β3 AR; read-out: Human β3 functional.
In the case of `CC(C(=O)Nc1ccc(CC2CC[C@H]([C@H](O)c3cccnc3)N2)cc1)n1ccnn1` (single isomer, unassigned) [Example 149], the EC50 is 1 to 10 nM.

Take `CCc1nc2c(s1)CCC2C(=O)Nc1ccc(CC2CC[C@H]([C@H](O)c3cccnc3)N2)cc1` (single isomer, unassigned) [Example 120]: the EC50 was in the range of 11 to 100 nM.

In the case of `O=C(Nc1ccc(CC2CC[C@H]([C@H](O)c3cccnc3)N2)cc1)C1CCc2sc(Br)nc21` (single isomer, unassigned) [Example 159], the EC50 is 11 to 100 nM.

As for `Cc1nnc(C(C)C(=O)Nc2ccc(CC3CC[C@H]([C@H](O)c4cccnc4)N3)cc2)[nH]1` (single isomer, unassigned) [Example 153], the EC50 fell in the range of 11 to 100 nM.

`C#CCC(C(=O)Nc1ccc(CC2CC[C@H]([C@H](O)c3cccnc3)N2)cc1)c1cnc(N)s1` (single isomer, unassigned) [Example 110]: the EC50 lay in the range of 1 to 10 nM.

Regarding `CC(C(=O)Nc1ccc(CC2CC[C@H]([C@H](O)c3cccnc3)N2)cc1)n1ccnn1` (single isomer, unassigned) [Example 148], the EC50 fell in the range of 1 to 10 nM.

`O=C(Cc1nc2c(s1)CCC2C(=O)Nc1ccc(CC2CC[C@H]([C@H](O)c3cccnc3)N2)cc1)NCc1ccccc1` (single isomer, unassigned) [Example 135]: the EC50 was 11 to 100 nM.

Turning to `CC(C(=O)Nc1ccc(CC2CC[C@H]([C@H](O)c3cccnc3)N2)cc1)c1nccs1` (single isomer, unassigned) [Example 174], the EC50 was 1 to 10 nM.

For `O=C(Nc1ccc(CC2CC[C@H]([C@H](O)c3cccnc3)N2)cc1)C1CCc2sc(CO)nc21` (single isomer, unassigned) [Example 189], the EC50 is 11 to 100 nM.

Turning to `O=C(Nc1ccc(CC2CC[C@H]([C@H](O)c3cccnc3)N2)cc1)C1CCCc2ccnn21` (single isomer, unassigned) [Example 140], the EC50 was 11 to 100 nM.

`Cc1nc(C(C)C(=O)Nc2ccc(CC3CC[C@H]([C@H](O)c4cccnc4)N3)cc2)cs1` (single isomer, unassigned) [Example 102]: the EC50 lay in the range of 101 to 1000 nM.

On to `Cc1nc2c(s1)CCCC2C(=O)Nc1ccc(CC2CC[C@H]([C@H](O)c3cccnc3)N2)cc1` (single isomer, unassigned) [Example 131], for which the EC50 was in the range of 1 to 10 nM.

Turning to `COCc1nc2c(s1)CCC2C(=O)Nc1ccc(CC2CC[C@H]([C@H](O)c3cccnc3)N2)cc1` (single isomer, unassigned) [Example 126], the EC50 is 101 to 1000 nM.

In the case of `Cc1nc2c(s1)CCCC2C(=O)Nc1ccc(CC2CC[C@H]([C@H](O)c3cccnc3)N2)cc1` (single isomer, unassigned) [Example 133], the EC50 was 11 to 100 nM.

Take `CC(C(=O)Nc1ccc(CC2CC[C@H]([C@H](O)c3cccnc3)N2)cc1)n1ncccc1=O` (single isomer, unassigned) [Example 162]: the EC50 was in the range of 1 to 10 nM.

For `O=C(Nc1ccc(CC2CC[C@H]([C@H](O)c3cccnc3)N2)cc1)C1CCc2cccnc21` (single isomer, unassigned) [Example 128], the EC50 lay within 1 to 10 nM.

On to `CC(C(=O)Nc1ccc(CC2CC[C@H]([C@H](O)c3cccnc3)N2)cc1)n1nncc1C(=O)O` (single isomer, unassigned) [Example 206], for which the EC50 lay within 1 to 10 nM.

On to `CC(C(=O)Nc1ccc(CC2CC[C@H]([C@H](O)c3cccnc3)N2)cc1)c1cscn1` (single isomer, unassigned) [Example 196], for which the EC50 lay within 11 to 100 nM.

As to `CC(C(=O)Nc1ccc(CC2CC[C@H]([C@H](O)c3cccnc3)N2)cc1)c1nnn(C)n1` (single isomer, unassigned) [Example 181], the EC50 is 11 to 100 nM.

For `Cc1cc(C(C)C(=O)Nc2ccc(CC3CC[C@H]([C@H](O)c4cccnc4)N3)cc2)[nH]n1` (single isomer, unassigned) [Example 177], the EC50 was in the range of 101 to 1000 nM.

The assay is the same for the next values; noted with them: Table 4; cAMP production, CHO cells expressing human β3 AR; read-out: Human β3 functional.
For `O=S(=O)(Nc1ccc(CC2CC[C@H]([C@H](O)c3cccnc3)N2)cc1)c1ccc(-c2nc(-c3ccc(C(F)(F)F)cc3)cs2)cc1` (stereo partly drawn) [Example 223], the EC50 lay within 1 to 10 nM.

Turning to `N#Cc1cccc(S(=O)(=O)Nc2ccc(CC3CC[C@H]([C@H](O)c4cccnc4)N3)cc2)c1` (stereo partly drawn) [Example 236], the EC50 was in the range of 101 to 1000 nM.

As for `O=S(=O)(Nc1ccc(CC2CC[C@H]([C@H](O)c3cccnc3)N2)cc1)c1ccc(I)cc1` (stereo partly drawn) [Example 224], the EC50 was 11 to 100 nM.

Staying with this assay, now noted: Table 5; human β3 functional activity given as ranges; read-out: Human β3 functional.
`O=C(Nc1ccc(CC2CC[C@H]([C@H](O)c3cccnc3)N2)cc1Br)C1CCc2sc(I)nc21` (single isomer, unassigned) [Example 243]: the EC50 lay within 101 to 1000 nM.

The same assay, now with this note: Table 6; human β3 functional activity given as ranges; read-out: Human β3 functional.
For `CC(NS(=O)(=O)c1ccccc1F)C(=O)Nc1ccc(C[C@@H]2CC[C@H]([C@H](O)c3cccnc3)N2)cc1` (stereo partly drawn) [Example 256], the EC50 is 11 to 100 nM.

With `CC(NC(=O)c1ccc(F)cc1)C(=O)Nc1ccc(C[C@@H]2CC[C@H]([C@H](O)c3cccnc3)N2)cc1` (stereo partly drawn) [Example 259], the EC50 is 1 to 10 nM.

With `CC(=O)NC(C)C(=O)Nc1ccc(C[C@@H]2CC[C@H]([C@H](O)c3cccnc3)N2)cc1` (stereo partly drawn) [Example 249], the EC50 lay in the range of 11 to 100 nM.

Consider `CC(NS(=O)(=O)Cc1ccccc1)C(=O)Nc1ccc(C[C@@H]2CC[C@H]([C@H](O)c3cccnc3)N2)cc1` (stereo partly drawn) [Example 258], for which the EC50 lay in the range of 11 to 100 nM.

Staying with this assay, now noted: cAMP production, CHO cells expressing human β3 AR; read-out: human Beta-3 agonist functional activity.
Turning to `C[C@H](C(=O)Nc1ccc(C[C@@H]2CC[C@H]([C@H](O)c3cccnc3)N2)cc1)c1ccccn1` (single isomer, unassigned) [Example 93, trifluoroacetic acid salt], the EC50 is less than 100 nM.

Regarding `C[C@H](NS(=O)(=O)c1ccc(F)cc1)C(=O)Nc1ccc(C[C@@H]2CC[C@H]([C@H](O)c3cccnc3)N2)cc1` [Example 246, (2S)-2-{[(4-Fluorophenyl)sulfonyl]amino}-N-[4-({(2S,5R)-5-[(R)-hydroxy(pyridin-3-yl)methyl]pyrrolidin-2-yl}methyl)phenyl]propanamide], the EC50 is less than 100 nM.

Source of the values: US8501786B2, “Hydroxymethyl pyrrolidines as beta 3 adrenergic receptor agonists” (Merck Sharp & Dohme Corp., priority 2009, dated 2013).
